Reference: ChEMBL document CHEMBL5537141, “Targeting PIM kinases in cancer therapy: An update on pharmacological small-molecule inhibitors” (Eur J Med Chem, 2024)

Assay: Metabolic stability in human liver microsomes assessed as half life measured upto 60 mins by LC/MS-MS analysis
Format: ADME, Microsome

| half-life | SMILES |
| --- | --- |
| > 180 min | C[C@@H]1C[C@H](N)C[C@H](c2ccncc2NC(=O)c2ccc(F)c(-c3ccccc3F)n2)C1 |
| 13 min | C[C@@H]1C[C@H](N)CN(c2ccncc2NC(=O)c2ccc(F)c(-c3ccccc3F)n2)C1 |
| 40 min | C[C@@H]1C[C@H](N)CN(c2ccncc2NC(=O)c2ccc(F)c(-c3c(F)cccc3F)n2)C1 |
